According to paper PMC11748363, “Antimicrobial and Antiproliferative Properties of 2‐Phenyl‐N‐(Pyridin‐2‐yl)acetamides” (Chemical Biology & Drug Design, 2025):
≈ marks a conversion by molar mass, not a printed value. Like-named read-outs stand apart in the source and are kept apart here.

Key:
HK‐2 cell line = test: Cytotoxicity CellTiter 96, HK-2 normal cell line; format: cell-based; conditions: Homo sapiens, 24 h incubation
Experimental: (§1) The cytotoxicity of final compounds was determined in human hepatocellular carcinoma cell line HepG2. Additional testing of selected compounds was performed on human epithelial kidney cancer cell line A498, human prostate cancer cell line PC‐3, human glioblastoma cell line U‐87 MG, and normal human proximal tubule cell line HK‐2.
1.4. Cytotoxicity determination […]
(§2) For subculturing, the cells were harvested after trypsin/EDTA (Sigma–Aldrich) treatment at 37 °C. To evaluate cytotoxicity, the cells treated with the tested substances were used as experimental groups whereas untreated HepG2 cells served as controls. The cells were seeded in density 10,000 cells per well in a 96 well plate. The next day the cells were treated with each of the tested substances dissolved in DMSO. The tested substances were […]
in triplicates according to their solubility. Simultaneously, the controls representing 100% cell viability, 0% cell viability (the cells treated with 10% DMSO), no cell control and vehiculum controls were also prepared in triplicates. After 24 h incubation in a humidified atmosphere containing 5% CO2 at […], the reagent from the kit CellTiter 96 AQueous One Solution Cell Proliferation Assay (CellTiter 96; PROMEGA, Fitchburg, USA) was added. After 2h incubation at 37 °C, absorbance of samples was recorded at 490 nm (TECAN, Infinita M200, Austria). A standard toxicological parameter IC50 was calculated by nonlinear regression from a semilogarithmic plot of incubation concentration versus percentage of absorbance relative to untre ated controls using GraphPad Prism 8 software.
Human epithelial kidney carcinoma A498 cell line, obtained from American Type Culture Collection (ATCC, Manassas, VA, USA, catalogue No.: HTB -44), was cultured in RPMI medium, Human normal kidney proximal tubule HK-2 cell line obtained from ATCC (ATCC, Manassas, VA, USA, catalogue No.:
CRL-2190) was cultured in DMEM High Glucose medium, Human prostate adenocarcinoma PC-3 cell line, obtained from ATCC (Manassas, VA, USA, catalogue No.: 90112714), was cultured in a Kaighn's Modification of Ham's F-12 Medium and human glioblastoma astrocytoma U-87 MG cell line, obtained from ECACC (ECACC, Salisbury, UK, catalogue No.: 89081402) was cultured in DMEM High Glucose medium. All cultures were supplemented with 10% fetal bovine serum, 1% non-essential amino acids (A498, HK-2 and U-87 MG), 1% sodium pyruvate (A498, HK-2 and U-87 MG) and 2 mM L-glutamine. […]
Simultaneously, the controls representing 100% cell viability, 0% cell viability (the cells treated with 10% DMSO), no cell control and vehiculum controls were also prepared in triplicates. […] Eventually, a colorimetric assay reagent CellTiter 96 AQueous One Solution Cell Proliferation Assay was added, and absorption was measured.

[1] = tested on: Lichtheimia corymbifera CCM 8077; test: Antifungal microdilution broth MIC, LC
[2] = tested on: Candida parapsilosis CCM 8260, ATCC 22019; test: Antifungal microdilution broth MIC, CP; conditions: Lodderomyces parapsilosis
[3] = tested on: Mycobacterium tuberculosis H37Ra; test: Antimycobacterial microdilution broth MIC (resazurin), Mtb H37Ra; format: cell-based; conditions: for MIC: Mycobacterium tuberculosis, H37RA, read-out: MIC Mtb H37Ra
[4] = tested on: Candida tropicalis CCM 8264, ATCC 750; test: Antifungal microdilution broth MIC, CT
[5] = tested on: Klebsiella pneumoniae CCM 4415, ATCC 10031; test: Antibacterial microdilution broth MIC, KP
[6] = tested on: Mycolicibacterium smegmatis DSM 43465; test: Antimycobacterial microdilution broth MIC (resazurin), M. smegmatis; format: cell-based; conditions: DSM43465, read-out: MIC M. smegmatis
[7] = tested on: Staphylococcus epidermidis CCM 4418, ATCC 12228; test: Antibacterial microdilution broth MIC, SE; format: cell-based
[8] = tested on: Trichophyton interdigitale CCM 8377, ATCC 9533; test: Antifungal microdilution broth MIC, TI; conditions: Trichophyton interdigitale
[9] = tested on: Staphylococcus aureus CCM 4223, ATCC 29213; test: Antibacterial microdilution broth MIC, SA; format: cell-based; conditions: Staphylococcus aureus
[10] = tested on: Aspergillus flavus CCM 8363; test: Antifungal microdilution broth MIC, AFla
[11] = tested on: Enterococcus faecalis CCM 4224, ATCC 29212; test: Antibacterial microdilution broth MIC, EF; format: cell-based
U‐87 MG cell line = test: Cytotoxicity CellTiter 96, U-87 MG; format: cell-based; conditions: Homo sapiens, 24 h incubation
Experimental: as §1
Cytotoxicity determination […]
as §2
in triplicates according to their solubility. Simultaneously, the controls representing 100% cell viability, 0% cell viability (the cells treated with 10% DMSO), no cell control and vehiculum controls were also […]
the reagent from the kit CellTiter 96 AQueous One Solution Cell Proliferation Assay (CellTiter 96; PROMEGA, Fitchburg, USA) was added. After 2h incubation at 37 °C, absorbance of samples was recorded at 490 nm (TECAN, Infinita M200, Austria). A standard toxicological parameter IC50 was calculated by nonlinear regression from a semilogarithmic plot of incubation concentration versus percentage of absorbance relative to untre ated controls using GraphPad Prism 8 software. […]
Kaighn's Modification of Ham's F-12 Medium and human glioblastoma astrocytoma U-87 MG cell line, […]
Glucose medium. All cultures were supplemented with 10% fetal bovine serum, 1% non-essential amino acids (A498, HK-2 and U-87 MG), 1% sodium pyruvate (A498, HK-2 and U-87 MG) and 2 mM L-glutamine. All cell culture consumables were purchased from Merck (Darmstadt, Germany). The cells

[12] = CCM8077, 24 h, read-out: MIC LC 24h
[13] = CCM8077, 48 h, read-out: MIC LC 48h
[14] = CCM8363, 24 h, read-out: MIC AFla 24h
[15] = CCM8363, 48 h, read-out: MIC AFla 48h

| SMILES | IC50 (HK‐2 cell line) | MIC [1, 12] | MIC [1, 13] | MIC ([2]; 24 h, read-out: MIC CP 24h) | MIC ([2]; 48 h, read-out: MIC CP 48h) | MIC ([3]; Calculated from MIC (μg/mL)) | MIC [3] | MIC ([4]; 24 h, read-out: MIC CT 24h) | MIC ([4]; 48 h, read-out: MIC CT 48h) | MIC KP 24h [5] | MIC KP 48h [5] | MIC [6] | MIC ([7]; 24 h, read-out: MIC SE 24h) | MIC ([7]; 48 h, read-out: MIC SE 48h) | MIC ([8]; 72 h, read-out: MIC TI 72h) | MIC ([8]; 120 h, read-out: MIC TI 120h) | MIC ([9]; 24 h, read-out: MIC SA 24h) | MIC ([9]; 48 h, read-out: MIC SA 48h) | MIC [10, 14] | MIC [10, 15] | also measured |
| --- | --- | --- | --- | --- | --- | --- | --- | --- | --- | --- | --- | --- | --- | --- | --- | --- | --- | --- | --- | --- | --- |
| COc1ccc(CC(=O)Nc2cccc(Cl)n2)cc1 [Compound 12, 2-(4-methoxyphenyl)-N-(6-chloropyridin-2-yl)acetamide] | > 250 µM | > 500 µM | > 500 µM | > 500 µM | > 500 µM | 56.3 µM | 15.6 µg/mL | > 500 µM | > 500 µM | > 500 µM | > 500 µM | 62.5 µg/mL (≈ 226 µM) | 500 µM (≈ 138 µg/mL) | > 500 µM | > 500 µM | > 500 µM | 500 µM (≈ 138 µg/mL) | 500 µM (≈ 138 µg/mL) | > 500 µM | > 500 µM | SI (selectivity index) ([3]; SI = HepG2 IC50 (μM)/MIC MtbH37Ra (μM), calculated for compounds with MIC ≤ 31.25 μg/mL): 9.2; MIC ([11]; 24 h, read-out: MIC EF 24h): 500 µM (≈ 138 µg/mL); MIC ([11]; 48 h, read-out: MIC EF 48h): 500 µM (≈ 138 µg/mL) |
| O=C(Cc1cccc(Cl)c1)Nc1ccc(Cl)cn1 [Compound 17, 2-(3-chlorophenyl)-N-(5-chloropyridin-2-yl)acetamide] | 138 µM | > 500 µM | > 500 µM | > 500 µM | > 500 µM | 445 µM | 125 µg/mL | > 500 µM | > 500 µM | > 500 µM | > 500 µM | > 500 µg/mL | > 500 µM | > 500 µM | 500 µM (≈ 141 µg/mL) | 500 µM (≈ 141 µg/mL) | > 500 µM | > 500 µM | > 500 µM | > 500 µM | IC50 (U‐87 MG cell line): 161 µM; MIC ([11]; 24 h, read-out: MIC EF 24h): > 500 µM; MIC ([11]; 48 h, read-out: MIC EF 48h): > 500 µM |
| O=C(Cc1ccccc1C(F)(F)F)Nc1cccc(Cl)n1 [Compound 24] | 247 µM | > 500 µM | > 500 µM | > 500 µM | > 500 µM | > 1590 µM | > 500 µg/mL | > 500 µM | > 500 µM | > 500 µM | > 500 µM | > 500 µg/mL | > 500 µM | > 500 µM | 500 µM (≈ 157 µg/mL) | 500 µM (≈ 157 µg/mL) | > 500 µM | > 500 µM | > 500 µM | > 500 µM | IC50 (U‐87 MG cell line): > 250 µM; MIC ([11]; 24 h, read-out: MIC EF 24h): > 500 µM; MIC ([11]; 48 h, read-out: MIC EF 48h): > 500 µM |
| O=C(Cc1cccc(C(F)(F)F)c1)Nc1ccc(Cl)cn1 [Compound 26] | 29.9 µM | > 500 µM | > 500 µM | > 500 µM | > 500 µM | > 1590 µM | > 500 µg/mL | > 500 µM | > 500 µM | > 500 µM | > 500 µM | 125 µg/mL (≈ 397 µM) | > 500 µM | > 500 µM | 500 µM (≈ 157 µg/mL) | 500 µM (≈ 157 µg/mL) | > 500 µM | > 500 µM | > 500 µM | > 500 µM | IC50 (U‐87 MG cell line): 158 µM; MIC ([11]; 24 h, read-out: MIC EF 24h): > 500 µM; MIC ([11]; 48 h, read-out: MIC EF 48h): > 500 µM |
